According to PubChem BioAssay AID1259411 (Chemical Carcinogenesis Research Information System (CCRIS), 2018):
Active and inactive are the calls of the source. The rule behind the calls is not given here.

System: rodent carcinogenicity bioassays, tumor incidence
Experiment: CCRIS carcinogenicity studies
Summary of the method: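 NCI-built, expert-reviewed records of carcinogenicity and related test outcomes (mutagenicity, tumor promotion/inhibition) compiled from published and report sources, historical span 1985-2011, not updated.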

In the case of `O=C(O)C(Cl)Br` (stereo not drawn), the carcinogen call (Species: Mouse, Strain/Sex: B6C3F1 / Female (50/Group), Route: Oral, Dose: 0, 250, 500, 1,000 mg/l in drinking water for 105 wk, Dose: 0, 250, 500, 1,000 mg/l in drinking water for 105 wk, Tumor Site: Type of Lesion: Liver: hepatocellular neoplasms) is reported as “active; positive. authors describe as clear evidence”, the carcinogen call (Species: Mouse, Strain/Sex: B6C3F1 / Male (50/Group), Route: Oral, Dose: 0, 250, 500, 1,000 mg/l in drinking water for 105 wk, Dose: 0, 250, 500, 1,000 mg/l in drinking water for 105 wk, Tumor Site: Type of Lesion: Liver: hepatocellular neoplasms and hepatoblastoma) is reported as “active; positive. authors describe as clear evidence” and the carcinogen call (Species: Rat, Strain/Sex: F344/N / Female (50/Group), Route: Oral, Dose: 0, 250, 500, 1,000 mg/l in drinking water for 105 wk, Dose: 0, 250, 500, 1,000 mg/l in drinking water for 105 wk, Tumor Site: Type of Lesion: Large Intestine: adenoma, Mammary Gland: multiple fibroadenomas, Pancreatic Islet: adenoma (may have been related), Tumor Site: Type of Lesion: Large Intestine: adenoma, Mammary Gland: multiple fibroadenomas, Pancreatic Islet: adenoma (may have been related)) is reported as “active; positive (some of the p values do not reach significance.) authors describe as c”. The carcinogen call (Species: Rat, Strain/Sex: F344/N / Male (50/Group), Route: Oral, Dose: 0, 250, 500, 1,000 mg/l in drinking water for 105 wk, Dose: 0, 250, 500, 1,000 mg/l in drinking water for 105 wk, Tumor Site: Type of Lesion: Mesothelium: malignant mesothelioma, Large Intestine: adenoma, Pancreatic Islet: adenoma (may have been related), Tumor Site: Type of Lesion: Mesothelium: malignant mesothelioma, Large Intestine: adenoma, Pancreatic Islet: adenoma (may have been related)) was “active; positive. authors describe as clear evidence”.

`CCC1C(c2ccc(O)cc2)=C(C)c2cc(O)ccc21` (stereo not drawn) was tested, and the carcinogen call (Species: HAMSTER, Strain/Sex: SYRIAN/MALE, Route: SUBCUTANEOUS IMPLANT, Dose: 0, 20 MG IN PELLETS IMPLANTED EVERY 2.5 MO FOR 9 MO (STUDY DURATION: 9 MO), Tumor Site: Type of Lesion: KIDNEY: TUMOR) was “active; positive”.

For `CCN(COC(C)=O)N=O`, the carcinogen call (Species: RAT, Strain/Sex: F344/FEMALE, Route: SUBCUTANEOUS, Dose: 5.5 MG/KG 1/WK FOR 10 WK, Tumor Site: Type of Lesion: INJECTION SITE: MALIGNANT FIBROUS HISTIOCYTOMA, LUNG: ADENOMA, ADENOCARCINOMA, SQUAMOUS CELL CARCINOMA) was “active; positive” and the carcinogen call (Species: RAT, Strain/Sex: F344/MALE, Route: SUBCUTANEOUS, Dose: 5.5 MG/KG 1/WK FOR 10 WK, Tumor Site: Type of Lesion: INJECTION SITE: MALIGNANT FIBROUS HISTIOCYTOMA, LUNG: ADENOMA, ADENOCARCINOMA, SQUAMOUS CELL CARCINOMA, THYROID GLAND: C, Tumor Site: Type of Lesion: INJECTION SITE: MALIGNANT FIBROUS HISTIOCYTOMA, LUNG: ADENOMA, ADENOCARCINOMA, SQUAMOUS CELL CARCINOMA, THYROID GLAND: C) was “active; positive”.

`O=c1ccc2ccccc2o1` was tested, and the carcinogen call (Species: MOUSE, Strain/Sex: B6C3F1/FEMALE, Route: GAVAGE, Dose: 0, 50, 100, 200 MG/KG BW IN CORN OIL 1/D 5 D/WK FOR 103 WK (STUDY DURATION: 103 WK), Dose: 0, 50, 100, 200 MG/KG BW IN CORN OIL 1/D 5 D/WK FOR 103 WK (STUDY DURATION: 103 WK), Tumor Site: Type of Lesion: LIVER: HEPATOCELLULAR ADENOMA, HEPATOCELLULAR ADENOMA OR CARCINOMA, LUNG: ALVEOLAR/BRONCHIOLAR ADENOMA, ALVEOLAR/BRONCHI) was “active; positive”, the carcinogen call (Species: MOUSE, Strain/Sex: B6C3F1/MALE, Route: GAVAGE, Dose: 0, 50, 100, 200 MG/KG BW IN CORN OIL 1/D 5 D/WK FOR 103 WK (STUDY DURATION: 103 WK), Dose: 0, 50, 100, 200 MG/KG BW IN CORN OIL 1/D 5 D/WK FOR 103 WK (STUDY DURATION: 103 WK), Tumor Site: Type of Lesion: LUNG: ALVEOLAR/BRONCHIOLAR ADENOMA, ALVEOLAR/BRONCHIOLAR ADENOMA OR CARCINOMA) was “active; positive” and the carcinogen call (Species: MOUSE, Strain/Sex: CD-1/FEMALE, Route: ORAL, Dose: 0, 300, 1000, 3000 PPM IN DIET FOR THE DURATION OF STUDY (STUDY DURATION: 109 WK), Dose: 0, 300, 1000, 3000 PPM IN DIET FOR THE DURATION OF STUDY (STUDY DURATION: 109 WK)) was “inactive; negative”. The carcinogen call (Species: MOUSE, Strain/Sex: CD-1/MALE, Route: ORAL, Dose: 0, 300, 1000, 3000 PPM IN DIET FOR THE DURATION OF STUDY (STUDY DURATION: 101 WK), Dose: 0, 300, 1000, 3000 PPM IN DIET FOR THE DURATION OF STUDY (STUDY DURATION: 101 WK)) was “inactive; negative”, the carcinogen call (Species: RAT, Route: ORAL, Tumor Site: Type of Lesion: BILE DUCT) was “active; positive” and the carcinogen call (Species: RAT, Strain/Sex: F344/FEMALE, Route: GAVAGE, Dose: 0, 25, 50, 100 MG/KG BW IN CORN OIL 1/D 5 D/WK FOR 103 WK (STUDY DURATION: 103 WK), Dose: 0, 25, 50, 100 MG/KG BW IN CORN OIL 1/D 5 D/WK FOR 103 WK (STUDY DURATION: 103 WK), Tumor Site: Type of Lesion: KIDNEY (RENAL TUBULE): ADENOMA) was “equivocal”. For the same molecule, the carcinogen call (Species: RAT, Strain/Sex: F344/MALE, Route: GAVAGE, Dose: 0, 25, 50, 100 MG/KG BW IN CORN OIL 1/D 5 D/WK FOR 103 WK (STUDY DURATION: 103 WK), Dose: 0, 25, 50, 100 MG/KG BW IN CORN OIL 1/D 5 D/WK FOR 103 WK (STUDY DURATION: 103 WK), Tumor Site: Type of Lesion: KIDNEY (RENAL TUBULE): ADENOMA) was “active; positive”, the carcinogen call (Species: RAT, Strain/Sex: SPRAGUE-DAWLEY/FEMALE, Route: ORAL, Dose: 0, 333, 1000, 2000 PPM IN DIET FOR DURATION OF STUDY ADMINISTERED TO RATS EXPOSED TO THE SAME DOSES DURING GESTATION AND, Dose: 0, 333, 1000, 2000 PPM IN DIET FOR DURATION OF STUDY ADMINISTERED TO RATS EXPOSED TO THE SAME DOSES DURING GESTATION AND, Tumor Site: Type of Lesion: LIVER: CHOLANGIOCARCINOMA, PARENCHYMAL TUMORS) was “active; positive” and the carcinogen call (Species: RAT, Strain/Sex: SPRAGUE-DAWLEY/MALE, Route: ORAL, Dose: 0, 333, 1000, 2000 PPM IN DIET FOR DURATION OF STUDY ADMINISTERED TO RATS EXPOSED TO THE SAME DOSES DURING GESTATION AND, Dose: 0, 333, 1000, 2000 PPM IN DIET FOR DURATION OF STUDY ADMINISTERED TO RATS EXPOSED TO THE SAME DOSES DURING GESTATION AND, Tumor Site: Type of Lesion: LIVER: CHOLANGIOCARCINOMA, PARENCHYMAL TUMORS) was “active; positive”.

With `C/C=C/Cl` the carcinogen call (Species: MOUSE, Strain/Sex: ICR/FEMALE, Route: GAVAGE, Dose: 1.0 MG IN 0.1 ML TRIOCTANOIN 1/WK, Tumor Site: Type of Lesion: FORESTOMACH: SQUAMOUS CELL CARCINOMA) was “active; positive”.

With `OCC(CO)NC1CC(O)(CO)C(O)C(O)C1O` (stereo not drawn) the carcinogen call (Species: MOUSE, Strain/Sex: CD-1/FEMALE, Route: GAVAGE, Dose: 0, 15, 50, 150 MG/KG/D IN DISTILLED WATER (STUDY DURATION: 105 WK), Dose: 0, 15, 50, 150 MG/KG/D IN DISTILLED WATER (STUDY DURATION: 105 WK)) was “inactive; negative”, the carcinogen call (Species: MOUSE, Strain/Sex: CD-1/MALE, Route: GAVAGE, Dose: 0, 15, 50, 150 MG/KG/D IN DISTILLED WATER (STUDY DURATION: 105 WK), Dose: 0, 15, 50, 150 MG/KG/D IN DISTILLED WATER (STUDY DURATION: 105 WK)) was “inactive; negative” and the carcinogen call (Species: RAT, Strain/Sex: F344/FEMALE, Route: GAVAGE, Dose: 0, 3, 10, 30 MG/KG/D IN DISTILLED WATER FOR 24 MO (STUDY DURATION: 110 WK), Dose: 0, 3, 10, 30 MG/KG/D IN DISTILLED WATER FOR 24 MO (STUDY DURATION: 110 WK)) was “inactive; negative”. The carcinogen call (Species: RAT, Strain/Sex: F344/MALE, Route: GAVAGE, Dose: 0, 3, 10, 30 MG/KG/D IN DISTILLED WATER FOR 24 MO (STUDY DURATION: 110 WK), Dose: 0, 3, 10, 30 MG/KG/D IN DISTILLED WATER FOR 24 MO (STUDY DURATION: 110 WK)) was “inactive; negative”.

In the case of `Cc1cc(-c2ccccc2C)ccc1NO`, the carcinogen call (Species: RAT, Strain/Sex: ACI/SEG/MALE, Route: INTRAPERITONEAL, Dose: 0, 50 UMOL/KG BW 2X/WK FOR 10 WK BEGINNING AT 3 D OF AGE (STUDY DURATION: 68 WK), Tumor Site: Type of Lesion: COLON: CARCINOMA) is reported as “active; positive” and the carcinogen call (Species: RAT, Strain/Sex: F344/MALE, Route: INTRAPERITONEAL, Dose: 0, 5, 10, 20 MG/KG 1/2 WK FOR 20 WK (STUDY DURATION: 60 WK), Dose: 0, 5, 10, 20 MG/KG 1/2 WK FOR 20 WK (STUDY DURATION: 60 WK), Tumor Site: Type of Lesion: PROSTATE: CARCINOMA, PERITONEUM: TUMOR, COLON: TUMOR, Tumor Site: Type of Lesion: PROSTATE: CARCINOMA, PERITONEUM: TUMOR, COLON: TUMOR) is reported as “active; positive”.
